Measurements from article PMC7603405 (Nature, 2020).
Entries after “also recorded” stand apart in the source; their conditions may differ. Peptide text beside a SMILES is read from it. * marks the point of attachment. Cbz = O=C(OCc1ccccc1)*; CHN2 = [N-]=[N+]=C*

Key:
SARS-CoV-2 USA-WA1/2020 [1] = type: cell-based; conditions: 2.5 and 1 μM, Vero E6, Table S3
SARS-CoV-2 HKU-001a [2] = type: cell-based; conditions: positive control of the screen
SARS-CoV-2 USA-WA1/2020 [3] = type: cell-based
SARS-CoV-2 USA-WA1/2020 [4] = experiment: Time-of-addition assay in Vero E6 cells; type: cell-based; conditions: 2.5 μM
[5] = cited from earlier work
SARS-CoV-2 HKU-001a [6] = type: cell-based
[7] = read-out: Cmax; humans; cited from earlier work
SARS-CoV-2 USA-WA1/2020 [8] = experiment: Drug synergy quantification with remdesivir in Vero E6 cells; type: cell-based
[9] = biological target: SARS-CoV-2 main protease (Mpro) (Severe acute respiratory syndrome coronavirus 2, UniProt P0DTD1); type: biochemical; conditions: 1 to 50 μM
[10] = biological target: SARS-CoV-2 papain-like protease (PLpro) (Severe acute respiratory syndrome coronavirus 2, UniProt P0DTD1); type: biochemical; conditions: 1 to 50 μM
COVID-19 = COVID-19 patients, NIAID trial; cited from earlier work
SARS-CoV-2 = type: cell-based; conditions: 5 μM; reversed by RAR antagonist Ro41-5253 5 μM

COc1cc(F)cc2c1-c1ccc(F)cc1C21NC(=O)NC1=O (stereo not drawn) [AL 3152]
validation as inhibitor of SARS-CoV-2 replication (SARS-CoV-2 USA-WA1/2020 [1]): validated

Cc1cccc(/C=N/Nc2cc(N3CCOCC3)n3nc(-c4ccncc4)cc3n2)c1 [APY0201]
antiviral activity in CPE assay (SARS-CoV-2 HKU-001a [2]): confirmed the potential antiviral activity

CCN(CC)CCCNc1ccnc2cc(Cl)ccc12 [AQ-13]
validation as inhibitor of SARS-CoV-2 replication (SARS-CoV-2 USA-WA1/2020 [1]): validated

Cc1cccc(/C=N/Nc2cc(N3CCOCC3)nc(OCCc3ccccn3)n2)c1 [Apilimod]
reduction of number of infected cells (SARS-CoV-2 USA-WA1/2020 [3]): 85%
step of viral life cycle inhibited, time of addition (SARS-CoV-2 USA-WA1/2020 [4]): inhibit viral replication during entry
doses showing a desirable safety profile in humans ([5]; well tolerated): ≤ 125 mg BID
antiviral activity in ex vivo lung culture (SARS-CoV-2 HKU-001a [6]): potently antagonizes viral replication
Cmax [7]: 265 nM

COc1ccc(CCN2CCC(Nc3nc4ccccc4n3Cc3ccc(F)cc3)CC2)cc1 [Astemizole]
validation as inhibitor of SARS-CoV-2 replication (SARS-CoV-2 USA-WA1/2020 [1]): confirmed to inhibit SARS-CoV-2 replication

COc1ccc2cc1Oc1ccc(cc1)C[C@H]1c3cc(c(OC)cc3CCN1C)Oc1c(OC)c(OC)cc3c1[C@H](C2)N(C)CC3 [Hanfangchin A, Tetrandrine]
synergy with remdesivir (SARS-CoV-2 USA-WA1/2020 [8]): notable levels of synergy with remdesivir
validation as inhibitor of SARS-CoV-2 replication (SARS-CoV-2 USA-WA1/2020 [1]): validated

CC(/C=C/C=C(\C)c1cc(C(C)(C)C)cc(C(C)(C)C)c1)=C\C(=O)O [LGD-1550]
validation as inhibitor of SARS-CoV-2 replication (SARS-CoV-2 USA-WA1/2020 [1]): validated

C[C@@H]1CS/C(=N\NC(=O)C(=O)[C@H](NC(=O)C2CCCCCC2)C2CCOCC2)N1C [ONO 5334]
inhibitory activity upon 3CLpro / Mpro [9]: lack potent inhibitory activity
reduction of number of infected cells (SARS-CoV-2 USA-WA1/2020 [3]): 72%
inhibitory activity upon PLpro [10]: lack potent inhibitory activity
tolerability in phase II clinical trials ([5]; treatment of osteoporosis): well tolerated

CCC(CC)COC(=O)[C@H](C)N[P@](=O)(OC[C@H]1O[C@@](C#N)(c2ccc3c(N)ncnn23)[C@H](O)[C@@H]1O)Oc1ccccc1 [Remdesivir]
improved time to recovery in treated patients (COVID-19): 47%

CC[C@H](NC(=O)[C@H](CS(=O)(=O)CC1CC1)N[C@@H](c1ccc(F)cc1)C(F)(F)F)C(=O)C(=O)NC1CC1 [VBY-825]
inhibitory activity upon 3CLpro / Mpro [9]: lack potent inhibitory activity
inhibitory activity upon PLpro [10]: lack potent inhibitory activity

CC(C)CC(NC(=O)OCc1ccccc1)C(=O)NC(C(=O)NCC(=O)C=[N+]=[N-])C(C)C (stereo not drawn) [Z LVG CHN2] (Cbz-Leu-Val-Gly-CHN2; configuration not given here)
inhibitory activity upon 3CLpro / Mpro [9]: lack potent inhibitory activity
inhibitory activity upon PLpro [10]: lack potent inhibitory activity

CCOC(=O)c1ncc2[nH]c3cccc(OC(C)C)c3c2c1C [ZK-93426]
validation as inhibitor of SARS-CoV-2 replication (SARS-CoV-2 USA-WA1/2020 [1]): validated

COc1cc(C)c(/C=C/C(C)=C/C=C/C(C)=C/C(=O)O)c(C)c1C [acitretin]
validation as inhibitor of SARS-CoV-2 replication (SARS-CoV-2 USA-WA1/2020 [1]): validated; also recorded: confirmed to inhibit SARS-CoV-2 replication

CCN(CC)CCCC(C)Nc1ccnc2cc(Cl)ccc12 (stereo not drawn) [chloroquine]
validation as inhibitor of SARS-CoV-2 replication (SARS-CoV-2 USA-WA1/2020 [1]): confirmed to inhibit SARS-CoV-2 replication

CC(C)CCC(=O)CC1c2ccccc2C(=O)N1c1ccc2ccc(Cl)nc2n1 (stereo not drawn) [pagoclone]
validation as inhibitor of SARS-CoV-2 replication (SARS-CoV-2 USA-WA1/2020 [1]): validated

CC1(C)CCC(C)(C)c2cc(NC(=O)c3ccc(C(=O)O)cc3)ccc21 [tamibarotene]
validation as inhibitor of SARS-CoV-2 replication (SARS-CoV-2 USA-WA1/2020 [1]): validated

CCOC(=O)c1ccc(C#Cc2ccc3c(c2)C(C)(C)CCS3)nc1 [tazarotene]
validation as inhibitor of SARS-CoV-2 replication (SARS-CoV-2 USA-WA1/2020 [1]): validated
effect on viral replication, chemical epistasis (SARS-CoV-2): inhibition of viral replication

CC1=C(/C=C/C(C)=C/C=C/C(C)=C/C(=O)O)C(C)(C)CCC1 [tretinoin]
validation as inhibitor of SARS-CoV-2 replication (SARS-CoV-2 USA-WA1/2020 [1]): validated

CCN(C(C)=O)c1cccc(-c2ccnc3c(C#N)cnn23)c1 [zaleplon GR]
validation as inhibitor of SARS-CoV-2 replication (SARS-CoV-2 USA-WA1/2020 [1]): validated

MDL 28170
inhibitory activity upon 3CLpro / Mpro [9]: lack potent inhibitory activity
reduction of number of infected cells (SARS-CoV-2 USA-WA1/2020 [3]): 65%
inhibitory activity upon PLpro [10]: lack potent inhibitory activity
